Columns and labels:
[1] = system: rat; test: Carrageenan test (inflamed pain); assay type: in vivo; conditions: inhibition class
Description: Injection of carrageenan subcutaneously into the hind foot (paw) of a rat induces robust inflammation and pain. The inflammatory response begins 1-2 hrs post-carrageenan injection and persists for at least five hours following inoculation. In addition, the rat's inflamed hind paw is sensitive to noxious (hyperalgesia) or innocuous (allodynia) stimuli, compared to the contralateral hind paw. Compounds can be evaluated in this model for anti-hyperalgesia and anti-inflammatory activity. […] It is possible that some compounds will affect the inflamed paw and not affect the responses of the contralateral paw.
Embodiments of the carrageenan foot edema test are performed with materials, reagents and procedures essentially as described by Winter, et al., (Proc. Soc. Exp. Biol. Med., 111, 544 (1962)). […] The rats are evaluated for their responsiveness to noxious (paw pinch, plantar test) or innocuous (cold plate, von Frey filaments) stimuli.
In a prophylactic embodiment, following determination of “Pre-carrageenan” responses, a subplantar injection of the test compound or a placebo are administered. […] Three hours (and optionally five hours) after carrageenan injection, the rats are evaluated for their responsiveness to noxious or innocuous stimuli and the paw volume was again measured. […]

[2] = molecular target: T1, iNOS (Rattus norvegicus, UniProt Q06518); test: LPS challenge (LPS induced iNOS in vivo); conditions: for ED50: ED50 class
T1 construct: from tissue; host or cells: whole animal: male Lewis rats after LPS injection; blood samples collected
Description: Inhibition of induction of iNOS can be quantified via the LPS challenge. Inflammation, edema, and the onset of sepsis can be observed following an injection of lipopolysaccharide (LPS), a substance produced by Gram-negative bacteria. […] (Iuvone T et al., Evidence that inducible nitric oxide synthase is involved in LPS-mediated plasma leakage in rat skin through the activation of nuclear factor-κB, Br J Pharm 1998:123 1325-1330.) As described above, the level of nitric oxide in the specimen can be quantified by correlation with plasma nitrate or nitrite levels via chemiluminescence, fluorescence, spectrophotometric assays, or by any method known in the art which provides adequate sensitivity and reproducibility, including those described above.
Male Lewis rats weighing 150-250 g are used in the studies. Rats may be fasted for up to 16 hours prior to the administration of LPS. Free access to water is maintained. Test compounds are administered with LPS or alone. Compounds are dissolved in the vehicle of 0.5% methycele/0.025% Tween 20 or 20% encapsin for oral administration. For the intravenous dosing, compounds are dissolved in saline or 0.5-3% DMSO/20% encapsin. The dosing volumes are 1-2 ml for oral and 0.3-1 ml for intravenous administration.
LPS is injected intravenously (under anesthesia) or intraperitoneally in sterile saline at a dose between 0.1-10 mg/kg in a volume not excess to 1 ml. The needle is 26-30 gauge. […] In routine screening experiments, rats are sacrificed 1.5-6 hr after LPS injection and a terminal bleeding is performed under anesthesia to collect 1-3 ml blood samples and then animals are then euthanized by CO2.

[3] = system: rat; test: Capsaicin test (topical capsaicin allodynia); assay type: in vivo
Description: Subcutaneous injection of dilute capsaicin into the rat hind paw produces transient but pronounced hyperalgesia, allodynia and pain. This effect may be mitigated by pretreatment with a suitable agent, such as a topical anaesthetic or analgesic, and the extent of this mitigation quantified by evaluation of pain-related behaviors in response to noxious or innocuous stimuli as described above; rats pretreated with a known analgesic display fewer pain and allodynia related behaviors than controls. Compounds may be evaluated for their efficacy as potential analgesics in this manner as well.
Male Lewis rats weighing between 180 and 250 grams are used. The right hind paw is dipped into vehicle (100% acetone) or compound in vehicle for 30 seconds and then allowed to air-dry for 30 sec. To prevent the animal from licking the compound off the paw, the paw is wiped twice with a wet paper towel. At 15 min after application of vehicle or compound, 0.1 mg in 10 μL capsaicin is injected into right hind paw. Measurement of allodynia is performed 0.5 to 1 hour after capsaicin injection.
One procedure for quantifying allodynia measures the rat behavioral response to presentation of von Frey filaments of increasing diameter. Each rat is placed in a small, clear cage on an elevated screen. Beginning with 4.31, the von Frey hair is presented perpendicularly to the right mid-plantar hind paw with sufficient force to cause slight buckling, for 6-8 seconds. If presentation lifts the hind paw it is disregarded, as it changes the nature of the stimulus. A positive response is noted if the paw is sharply withdrawn upon onset or offset of stimulus. Ambulation is considered an ambiguous response and the presentation is repeated. Stimuli are presented in a consecutive fashion. A positive response would call for the presentation of the immediately weaker weight filament next; likewise, no response would call for the immediately stronger. Presentations continue until a series of six consecutive responses from the first change is logged. The next rat is then tested. This procedure is standard in the art for the measurement of allodynia, but any other method known in the art which provides adequate sensitivity and reproducibility may be substituted.

[4] = at 0.5 hr after capsaicin injection
[5] = at 1 hr after capsaicin injection

| Compound | Carrageenan Inflamed Pain at 30 mg/kg [1] | ED50 [2] [mg/kg] | Topical Capsaicin Allodynia [3, 4] | Topical Capsaicin Allodynia [3, 5] | inhibition at 16 mg/kg ([2]; at 16 mg/kg) [%] |
| --- | --- | --- | --- | --- | --- |
| CN(CCCNCc1ccc2c(c1)OCO2)c1nc(-n2ccnc2)ns1 [Example 2, N′-Benzo[1,3]dioxol-5-ylmethyl-N-(3-imidazol-1-yl-[1,2,4]thiadiazol-5-yl)-N-methyl-propane-1,3-diamine] | − ((−) = <40% inhibition) | < 10 | + at 0.5 hr ((+) = >15% inhibition) | + at 1 hr ((+) = >15% inhibition) | – |
| Cc1cc(C2CCCN2C(=O)NCCc2ccc3c(c2)OCO3)nc(-n2ccnc2)n1 (stereo not shown) [Example 4, 2-(2-Imidazol-1-yl-6-methyl-pyrimidin-4-yl)-pyrrolidine-1-carboxylic acid (2-benzo[1,3]dioxol-5-yl-ethyl)-amide] | – | < 10 | − at 0.5 hr ((−) = <15% inhibition) | + at 1 hr ((+) = >15% inhibition) | – |
| Cc1cc(C2CCCN2C(=O)CNCc2ccc3c(c2)OCO3)nc(-n2ccnc2)n1 (stereo not shown) [Example 5] | – | – | + at 0.5 hr ((+) = >15% inhibition) | − at 1 hr ((−) = <15% inhibition) | 64 |
